Active and inactive are the calls of the source. No cut-off for these calls is given here.
Legend:
[1] = target: T1, Acetylcholinesterase (Rattus norvegicus, UniProt P37136); experiment: Inhibition of AChE from rat cortex homogenate using acetylthiocholine iodide as substrate after 15 mins by Ellman method
T1 sequence (P37136 whole entry): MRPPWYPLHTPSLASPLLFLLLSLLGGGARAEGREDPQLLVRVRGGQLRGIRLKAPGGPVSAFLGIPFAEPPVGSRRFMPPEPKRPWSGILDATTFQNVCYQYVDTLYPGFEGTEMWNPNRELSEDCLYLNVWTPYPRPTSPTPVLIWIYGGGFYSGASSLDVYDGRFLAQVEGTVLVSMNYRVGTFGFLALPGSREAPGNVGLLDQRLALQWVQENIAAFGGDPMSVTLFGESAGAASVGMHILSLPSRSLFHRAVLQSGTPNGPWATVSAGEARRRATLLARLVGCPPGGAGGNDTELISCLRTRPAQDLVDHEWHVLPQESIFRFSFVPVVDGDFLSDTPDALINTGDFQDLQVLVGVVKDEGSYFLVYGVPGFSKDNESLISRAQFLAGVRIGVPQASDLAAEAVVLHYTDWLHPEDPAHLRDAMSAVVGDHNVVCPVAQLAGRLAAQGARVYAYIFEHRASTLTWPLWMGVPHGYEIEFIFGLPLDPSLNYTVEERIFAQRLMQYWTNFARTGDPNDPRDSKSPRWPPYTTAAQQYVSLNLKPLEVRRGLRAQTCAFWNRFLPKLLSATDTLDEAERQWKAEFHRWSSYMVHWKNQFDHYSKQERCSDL

[2] = target: Acetylcholinesterase (Electrophorus electricus, UniProt O42275); experiment: Inhibition of electric eel AChE using acetylthiocholine iodide as substrate after 15 mins by Ellman method
[3] = target: Amyloid-beta precursor protein (Homo sapiens) (UniProt P05067); experiment: Inhibition of Cu2+-mediated aggregation of amyloid beta (1-42) (unknown origin) at 25 uM after 24 hrs by thioflavin T fluorescence-based fluorimetric method
[4] = organism: Rattus norvegicus; experiment: Selectivity index, ratio of IC50 for rat serum BuChE to IC50 for AChE from rat cortex homogenate; format: cell-free
[5] = Inhibition of rat serum BuChE using butyrylthiocholine iodide as substrate after 15 mins by Ellman method; format: cell-free
[6] = Antioxidant activity assessed as AAPH scavenging activity measured as trolox equivalent at 5 uM after 15 mins by ORAC-FL method relative to control; format: physicochemical; conditions: 0.25 h
[7] = target: Amyloid-beta precursor protein (Homo sapiens) (UniProt P05067); experiment: Inhibition of self-mediated aggregation of amyloid beta (1-42) (unknown origin) at 25 uM after 24 hrs by thioflavin T fluorescence-based fluorimetric method
[8] = target: Acetylcholinesterase (Electrophorus electricus) (UniProt O42275); experiment: Mixed-type inhibition of electric eel AChE using acetylthiocholine iodide as substrate at 0.0625 to 0.25 uM after 15 mins by Lineweaver-Burk plot method
[9] = Metal chelating activity of the compound assessed as formation of iron-compound complex in methanol solution at 37.5 uM after 30 mins by UV-vis spectrometry; format: physicochemical; conditions: 0.5 h
[10] = Metal chelating activity of the compound assessed as formation of copper-compound complex in methanol solution at 37.5 uM after 30 mins by UV-vis spectrometry; format: physicochemical; conditions: 0.5 h
[11] = Metal chelating activity of the compound assessed as formation of zinc-compound complex in methanol solution at 37.5 uM after 30 mins by UV-vis spectrometry; format: physicochemical; conditions: 0.5 h
[12] = Metal chelating activity of the compound assessed as formation of aluminium-compound complex in methanol solution at 37.5 uM after 30 mins by UV-vis spectrometry; format: physicochemical; conditions: 0.5 h

Chain of Amyloid-beta precursor protein (Homo sapiens) (P05067 whole entry): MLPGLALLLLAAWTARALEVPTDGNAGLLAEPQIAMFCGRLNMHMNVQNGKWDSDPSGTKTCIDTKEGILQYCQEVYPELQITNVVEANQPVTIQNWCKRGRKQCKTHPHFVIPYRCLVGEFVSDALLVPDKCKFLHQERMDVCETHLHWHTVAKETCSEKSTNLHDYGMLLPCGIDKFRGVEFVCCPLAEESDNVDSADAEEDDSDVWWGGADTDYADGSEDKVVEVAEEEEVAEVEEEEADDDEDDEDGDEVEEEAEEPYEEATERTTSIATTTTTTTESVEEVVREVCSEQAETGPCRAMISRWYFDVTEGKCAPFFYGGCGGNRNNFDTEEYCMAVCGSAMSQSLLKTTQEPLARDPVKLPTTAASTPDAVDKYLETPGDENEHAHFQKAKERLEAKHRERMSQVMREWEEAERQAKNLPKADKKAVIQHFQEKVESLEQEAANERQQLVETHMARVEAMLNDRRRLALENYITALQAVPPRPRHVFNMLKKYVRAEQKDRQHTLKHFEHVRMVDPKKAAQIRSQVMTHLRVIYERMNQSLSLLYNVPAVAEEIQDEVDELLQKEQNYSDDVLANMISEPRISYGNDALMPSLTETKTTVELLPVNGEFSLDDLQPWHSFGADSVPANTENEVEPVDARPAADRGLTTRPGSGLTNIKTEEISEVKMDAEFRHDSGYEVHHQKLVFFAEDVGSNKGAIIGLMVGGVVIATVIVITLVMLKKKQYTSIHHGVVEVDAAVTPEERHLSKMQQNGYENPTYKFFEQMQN
Chain of Acetylcholinesterase (Electrophorus electricus, UniProt O42275) (O42275 whole entry): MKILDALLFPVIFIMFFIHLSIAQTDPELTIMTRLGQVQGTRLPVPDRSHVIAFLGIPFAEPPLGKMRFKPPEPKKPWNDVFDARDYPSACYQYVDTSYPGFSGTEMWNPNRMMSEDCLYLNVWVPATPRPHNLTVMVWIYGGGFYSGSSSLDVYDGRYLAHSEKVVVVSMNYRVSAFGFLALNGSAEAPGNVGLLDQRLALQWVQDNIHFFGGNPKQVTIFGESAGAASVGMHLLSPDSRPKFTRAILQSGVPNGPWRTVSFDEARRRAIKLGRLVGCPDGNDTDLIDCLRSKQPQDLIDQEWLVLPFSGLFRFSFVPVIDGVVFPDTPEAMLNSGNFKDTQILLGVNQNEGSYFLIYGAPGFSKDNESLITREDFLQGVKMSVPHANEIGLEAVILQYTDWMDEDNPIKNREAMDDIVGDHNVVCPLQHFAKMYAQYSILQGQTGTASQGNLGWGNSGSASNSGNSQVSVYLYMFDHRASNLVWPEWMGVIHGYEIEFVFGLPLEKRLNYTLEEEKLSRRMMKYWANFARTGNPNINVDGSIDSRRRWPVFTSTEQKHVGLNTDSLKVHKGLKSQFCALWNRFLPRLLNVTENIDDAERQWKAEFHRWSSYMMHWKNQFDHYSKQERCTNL
Chain of Acetylcholinesterase (Electrophorus electricus) (O42275 24-633 limits assumed): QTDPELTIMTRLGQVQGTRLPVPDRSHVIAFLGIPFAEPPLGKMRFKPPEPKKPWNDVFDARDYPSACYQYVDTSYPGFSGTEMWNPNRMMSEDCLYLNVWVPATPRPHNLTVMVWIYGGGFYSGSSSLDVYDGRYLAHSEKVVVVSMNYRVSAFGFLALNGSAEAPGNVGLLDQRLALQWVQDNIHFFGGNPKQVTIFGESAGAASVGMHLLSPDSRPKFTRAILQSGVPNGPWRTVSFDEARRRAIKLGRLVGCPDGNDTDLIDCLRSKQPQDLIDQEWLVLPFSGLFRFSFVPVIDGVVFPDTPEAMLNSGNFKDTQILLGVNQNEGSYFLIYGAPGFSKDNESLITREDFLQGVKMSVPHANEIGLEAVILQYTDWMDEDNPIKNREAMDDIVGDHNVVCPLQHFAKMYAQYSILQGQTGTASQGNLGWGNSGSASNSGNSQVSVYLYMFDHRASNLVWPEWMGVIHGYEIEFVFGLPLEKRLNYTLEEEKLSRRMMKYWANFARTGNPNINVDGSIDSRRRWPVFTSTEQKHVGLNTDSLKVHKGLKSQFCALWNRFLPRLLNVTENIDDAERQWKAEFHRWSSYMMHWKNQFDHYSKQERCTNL

SMILES	IC50 [1] [µM]	IC50 ([2]; read-out: IC50) [µM]	inhibition [3] [%]	Ratio IC50 [4]	IC50 [5] [µM]	fold change (FC) [6]	inhibition [7] [%]	inhibition [8]	Activity [9]	Activity [10]	Activity [11]	Activity [12]	IC50 [2]
CCN(CCCCNC(=O)c1cc(=O)c2c(O)cc(O)cc2o1)Cc1ccccc1OC	1.11	36.2	32.1	127	141	2.3	37.8						
COc1cc(O)c2c(=O)cc(C(=O)NCCCCCCN(C)Cc3ccccc3OC)oc2c1	1.59	0.58	48.1	27.2	43.3	1.3	43.9						
CCN(CCCNC(=O)c1cc(=O)c2c(O)cc(OC)cc2o1)Cc1ccccc1	7.94	11.2	31.5	10.5	83.5	0.66	21.1						
COc1cc(O)c2c(=O)cc(C(=O)NCCCCCCN(C)Cc3ccccc3)oc2c1	3.03	0.25	37.1	16.5	50.1	1	33.5						
CCN(CCCCNC(=O)c1cc(=O)c2c(O)cccc2o1)Cc1ccccc1OC	0.07	0.55	48.3	736	51.5	0.83	59.2	Active	Not Active	Active	Not Active	Not Active	
O=C(O)c1cc(=O)c2c(O)cc(O)cc2o1	> 200	> 200			> 200	2.01							
CCN(CCCCNC(=O)c1cc(=O)c2c(O)cc(N(C)C)cc2o1)Cc1ccccc1OC	0.91	4.02	36.9	120	109	1.05	41.1						
CCN(CCCCCCNC(=O)c1cc(=O)c2c(O)cccc2o1)Cc1ccccc1OC	0.19	0.53	55.6	122	23.2	0.87	63						
COc1cc2c(cc1OC)C(=O)C(CC1CCN(Cc3ccccc3)CC1)C2 (stereo unspecified) [DONEPEZIL]					20.7								
COc1cc(O)c2c(=O)cc(C(=O)NCCCCN(C)Cc3ccccc3OC)oc2c1	2.9	3.5	36.3	28.3	82.1	0.55	47.5						
C#CCN(CCCCNC(=O)c1cc(=O)c2c(O)cc(OC)cc2o1)Cc1ccccc1OC	13.6	73	21.5	4.2	57.3	0.56	22.4						
CCN(CCCCNC(=O)c1cc(=O)c2c(O)cc(N(C)C)cc2o1)Cc1ccccc1N(C)C	1.39	3.53	30.7	107	149	1.34	40.8						
CN(CCCNC(=O)c1cc(=O)c2c(O)cccc2o1)Cc1ccccc1	19.6	24.4	25.8	6.1	120	0.85	43.9						
CCN(CCCCNC(=O)c1cc(=O)c2c(O)cc(OC)cc2o1)Cc1ccccc1	1.81	1.45	34.1	71	128	0.65	39						
COc1ccccc1CN(C)CCCNC(=O)c1cc(=O)c2c(O)cccc2o1	9.51		23.8	10.7	102	1.64	50.6						Not Active
CCOC(=O)c1cc(=O)c2c(O)cccc2o1	> 200	> 200			> 200	0.78							
CCN(CCCCNC(=O)c1cc(=O)c2c(O)cc(OC)cc2o1)Cc1ccc(N(C)C)cc1	7.45	9.05	28.8	7.7	57.5	2.2	37.1						

SMILES	IC50 [1] [µM]	IC50 ([2]; read-out: IC50) [µM]	inhibition [3] [%]	Ratio IC50 [4]	IC50 [5] [µM]	fold change (FC) [6]	inhibition [7] [%]	inhibition [8]	Activity [9]	Activity [10]	Activity [11]	Activity [12]	IC50 [2]
COc1ccccc1CN(C)CCCCNC(=O)c1cc(=O)c2c(O)cccc2o1	1.37	3.29	24.1	40.1	55	0.81	49.3						
CCN(CCCNC(=O)c1cc(=O)c2c(O)cccc2o1)Cc1ccccc1OC	0.41	13.9	35.2	228	93.4	1.13	48.7						
CCN(CCCNC(=O)c1cc(=O)c2c(O)cc(O)cc2o1)Cc1ccccc1OC	6.85	49.7	18.1	> 29.2	> 200	2.1	35.1						
CCN(CCCCCCNC(=O)c1cc(=O)c2c(O)cc(OC)cc2o1)Cc1ccccc1OC	0.23	0.56	52	217	49.9	0.76	58.2						
CCN(CCCCCCNC(=O)c1cc(=O)c2c(O)cc(O)cc2o1)Cc1ccccc1OC	0.87	1.4	28.7	> 200	> 200	2.25	39.4						
COc1cc(/C=C/C(=O)CC(=O)/C=C/c2ccc(O)c(OC)c2)ccc1O			58										
CN(C)c1cc(O)c2c(=O)cc(C(=O)O)oc2c1	> 200	> 200			> 200	0.95							
COc1cc(O)c2c(=O)cc(C(=O)NCCCCN(C)Cc3ccccc3)oc2c1	7.5	5.86	35.3	17.9	135	0.79	24.4						
COc1cc(O)c2c(=O)cc(C(=O)O)oc2c1	> 200	> 200			> 200	0.87							
CCN(CCCNC(=O)c1cc(=O)c2c(O)cc(OC)cc2o1)Cc1ccccc1OC	0.88	1.85	27.2	224	197	0.54	47.9						
COc1cc(O)c2c(=O)cc(C(=O)NCCCN(C)Cc3ccccc3OC)oc2c1	4.01	9.8	28.7	42.5	171	0.93	43.6						
CCN(CCCCNC(=O)c1cc(=O)c2c(O)cc(OC)cc2o1)Cc1ccccc1OC	0.33	1.16	38.9	262	86.5	0.62	51						
CCN(CCCCNC(=O)c1cc(=O)c2c(O)cc(OC)cc2o1)Cc1ccccc1N(C)C	0.31	0.92	20	239	74.1	0.97	25.6						
COc1cc(O)c2c(=O)cc(C(=O)NCCCN(C)Cc3ccccc3)oc2c1	15.3	3.12	24.3	> 13.1	> 200	0.46	23						
CCN(CCCCCCNC(=O)c1cc(=O)c2c(O)cc(OC)cc2o1)Cc1ccccc1	1.7	1.38	42.6	31.5	53.5	0.65	28.6						
COc1cc(O)c2c(=O)cc(C(=O)NCCCCN3CCOc4ccccc4C3)oc2c1	> 200	> 200	35		> 200	0.68	40.9						

From ChEMBL document CHEMBL3397027, “Design, synthesis and evaluation of chromone-2-carboxamido-alkylbenzylamines as multifunctional agents for the treatment of Alzheimer's disease” (Bioorg Med Chem, 2015)
